# From publication PMC7044277 (Nature Communications, 2020)
# Values joined by “and” are separate entries in the source; they are usually repeats but may differ in a detail not shown here. Identical values can stand only once.
# Legend:
# Format in all cases: cell-based
# 320 non-olfactory GPCRs [1] = target: T1, 320 non-olfactory GPCRs (Homo sapiens, UniProt P23945)
# T1 construct: expressed in transfected cells; host or cells: HTLA cells
# 320 non-olfactory GPCRs [2] = target: T2, 320 non-olfactory GPCRs (Homo sapiens, UniProt Q9HBW9)
# T2 construct: expressed in transfected cells; host or cells: HTLA cells
# T2 sequence (Q9HBW9 20-690): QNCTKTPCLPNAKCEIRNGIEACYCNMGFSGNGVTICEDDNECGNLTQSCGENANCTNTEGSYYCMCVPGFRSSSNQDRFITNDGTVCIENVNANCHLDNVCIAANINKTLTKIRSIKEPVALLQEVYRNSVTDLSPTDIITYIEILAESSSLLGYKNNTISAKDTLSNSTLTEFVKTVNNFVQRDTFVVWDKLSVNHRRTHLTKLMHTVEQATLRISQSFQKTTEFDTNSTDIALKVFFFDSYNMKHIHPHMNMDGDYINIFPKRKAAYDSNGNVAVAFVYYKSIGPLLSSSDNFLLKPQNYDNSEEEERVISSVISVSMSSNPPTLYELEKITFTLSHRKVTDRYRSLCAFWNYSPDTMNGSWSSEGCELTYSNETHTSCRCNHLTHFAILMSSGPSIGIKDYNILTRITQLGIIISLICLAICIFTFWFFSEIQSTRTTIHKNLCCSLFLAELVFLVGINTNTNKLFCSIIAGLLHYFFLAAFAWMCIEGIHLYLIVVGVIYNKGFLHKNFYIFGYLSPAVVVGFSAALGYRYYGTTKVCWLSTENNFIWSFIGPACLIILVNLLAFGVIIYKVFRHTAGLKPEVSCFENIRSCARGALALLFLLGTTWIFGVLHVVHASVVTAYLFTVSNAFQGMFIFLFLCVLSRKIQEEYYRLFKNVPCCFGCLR
# 320 non-olfactory GPCRs [3] = target: T3, 320 non-olfactory GPCRs (Homo sapiens, UniProt P47901)
# T3 construct: expressed in transfected cells; host or cells: HTLA cells
# T3 sequence (P47901 whole entry): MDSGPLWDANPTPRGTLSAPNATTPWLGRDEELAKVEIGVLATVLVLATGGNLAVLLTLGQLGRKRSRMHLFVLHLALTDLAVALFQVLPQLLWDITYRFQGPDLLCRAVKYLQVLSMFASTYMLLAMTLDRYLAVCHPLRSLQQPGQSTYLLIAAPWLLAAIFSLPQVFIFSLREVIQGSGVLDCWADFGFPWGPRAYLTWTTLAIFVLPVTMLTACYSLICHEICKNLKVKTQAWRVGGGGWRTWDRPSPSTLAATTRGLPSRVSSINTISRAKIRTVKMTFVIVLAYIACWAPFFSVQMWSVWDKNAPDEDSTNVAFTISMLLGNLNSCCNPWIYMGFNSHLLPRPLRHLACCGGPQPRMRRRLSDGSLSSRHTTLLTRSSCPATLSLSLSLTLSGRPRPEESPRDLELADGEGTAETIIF
# 320 non-olfactory GPCRs [4] = target: T4, 320 non-olfactory GPCRs (Homo sapiens, UniProt Q6U736); details: receptor OPN5; replicate values, Fig_4g
# T4 construct: expressed in transfected cells; host or cells: HTLA cells
# T4 sequence (Q6U736 whole entry): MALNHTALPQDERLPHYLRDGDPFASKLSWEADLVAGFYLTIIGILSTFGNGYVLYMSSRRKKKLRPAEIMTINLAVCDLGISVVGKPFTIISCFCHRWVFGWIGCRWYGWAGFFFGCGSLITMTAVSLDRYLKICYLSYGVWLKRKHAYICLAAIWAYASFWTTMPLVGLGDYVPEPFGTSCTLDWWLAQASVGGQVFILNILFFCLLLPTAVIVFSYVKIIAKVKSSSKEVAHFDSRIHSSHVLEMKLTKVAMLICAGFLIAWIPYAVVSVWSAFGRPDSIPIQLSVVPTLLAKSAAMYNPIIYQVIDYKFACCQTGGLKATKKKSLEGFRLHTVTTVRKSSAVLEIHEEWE
# 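Wherever Fold of Basal is given: compound tested at 1 µM final concentration.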
# 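Wherever GPCRome agonism screen response is given: fold over basal response of each receptor without drug.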
# T1 sequence (P23945 18-695): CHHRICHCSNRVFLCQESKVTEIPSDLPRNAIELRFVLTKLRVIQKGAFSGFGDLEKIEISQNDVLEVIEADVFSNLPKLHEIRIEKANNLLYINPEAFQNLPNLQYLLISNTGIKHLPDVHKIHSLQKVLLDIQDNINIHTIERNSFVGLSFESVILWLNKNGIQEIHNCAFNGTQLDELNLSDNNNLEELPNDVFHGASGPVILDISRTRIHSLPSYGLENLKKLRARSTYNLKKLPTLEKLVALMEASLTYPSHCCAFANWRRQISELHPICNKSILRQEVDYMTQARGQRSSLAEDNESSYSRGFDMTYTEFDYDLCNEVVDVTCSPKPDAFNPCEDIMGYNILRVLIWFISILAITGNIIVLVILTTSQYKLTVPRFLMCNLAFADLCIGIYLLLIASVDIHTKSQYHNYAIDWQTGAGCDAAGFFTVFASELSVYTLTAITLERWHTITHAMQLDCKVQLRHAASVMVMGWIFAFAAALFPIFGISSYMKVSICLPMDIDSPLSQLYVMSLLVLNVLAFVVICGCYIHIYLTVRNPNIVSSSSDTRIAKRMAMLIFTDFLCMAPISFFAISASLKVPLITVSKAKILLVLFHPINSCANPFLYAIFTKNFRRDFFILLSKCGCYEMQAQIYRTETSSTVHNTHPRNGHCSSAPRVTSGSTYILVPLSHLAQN
smiles,measurement,setting,value
CCOc1cccc2cc(C(C)NCC3(O)CCCCC3)oc12 (stereo not shown) [O4LE6],Fold of Basal,320 non-olfactory GPCRs [1],0.5729 and 0.6139 and 0.617 and 0.5943
same,Fold of Basal,320 non-olfactory GPCRs [2],1.158 and 1.093 and 1.161 and 0.9931
same,Fold of Basal,320 non-olfactory GPCRs [3],1.0215 and 1.01 and 1.094 and 0.8472
same,GPCRome agonism screen response,320 non-olfactory GPCRs [4],0.05197 and 0.3541 and 1.246 and 1.464
